The values below come from patent US9034299B2, “ATF4 inhibitors and their use for neural protection, repair, regeneration, and plasticity” (priority 2007, dated 2015).

The structures appear in SMILES notation.

Holding throughout (assay type): cell-based, mouse
In assay [1] the test system is embryonic cortical neurons. Kind of assay: Cell viability of primary cortical neurons (MTT assay, live/dead assay). As for the experimental part:
(§1) FIG. 1. Amino acid depletion and thapsigargin treatment induce ATF4 and protect embryonic cortical neurons from oxidative stress-induced cell death. (A) Cortical neuronal cultures (1 d in vitro) were treated with a vehicle control (shown as C), 10 mM of the glutamate analogue HCA, 1 μg/ml arginase, 1 μM thapsigargin, 1 μg/ml arginase and 10 mM HCA, or 10 mM HCA and 1 μM thapsigargin. 24 h later, cell viability was determined using the MTT assay. The graph depicts mean (compared with control)±SD calculated from three separate experiments for each group (n=25). *, P<0.05 from HCA-treated cultures by the Kruskal-Wallis test followed by Dunn's multiple comparisons test. (B) Live/dead assay of cortical neuronal cultures (2 d in vitro). Live cells were detected by uptake and trapping of calcein-AM (green fluorescence). […] Bar, 50 μm. […] Cells were harvested at the indicated time points, and nuclear extracts were separated using gel electrophoresis and immunodetected using an antibody against ATF4. YY1 was monitored as a loading control. The immunoblot is a representative example of three experiments.
(§2) FIG. 5. ATF4 has a negative impact on the neuronal glutathione metabolism. (A) ATF4^+/+ (♦) and ATF4^−/− (▴) cortical neurons were treated with 10 mM HCA. At the indicated time points, cells were trypsinized, washed, and pelleted. Reduced glutathione (GSH) was determined in the cell pellets using HPLC electrochemical detection. Data are from three separate cultures, and each data point was measured in duplicate. Graph depicts mean±SD. (B) Schematic overview over cysteine uptake and glutathione synthesis and their inhibition. (C) ATF4^+/+ and ATF4^−/− cortical neurons were treated with a vehicle control (shown as C) or 200 μM BSO. 24 h later, cell viability was determined using the MTT assay. The graph depicts mean (compared with control)±SD calculated from five separate experiments for each group (n=46 ATF4^+/+ and 58 ATF4^−/−). *, P<0.05 from untreated ATF4^+/+ cultures by the Kruskal-Wallis test followed by Dunn's multiple comparisons test. The difference between treated and untreated ATF4^−/− neurons was not significant (n.s.). (D) Live/dead assay displaying untreated and BSO-treated ATF4^+/+ and ATF4^−/− neurons. Bar, 50 μm. […] Cytoplasmic extracts were separated using gel electrophoresis and immunodetected using an antibody against γGCS. Total eIF2α was monitored as a loading control. (F) ATF4^+/+ (♦) and ATF4^−/− (▪) cortical neurons were treated with 200 μM BSO. At the indicated time points, cells were trypsinized, washed, and pelleted. GSH was determined in the cell pellets using HPLC electrochemical detection. Data are from three separate cultures, and each data point was measured in duplicate. Graph depicts mean±SD. (G) ATF4^+/+ cortical neurons were infected with GFP (♦), ATF4WT (▪), and ATF4ΔRK (▴) adenoviruses at an MOI of 100. At the indicated time points after infection, cells were trypsinized, washed, and pelleted. GSH was determined in the cell pellets using HPLC electrochemical detection. The graph depicts mean±SD calculated from three separate experiments for each group, and each data point was measured in duplicate. The value obtained from noninfected neurons was arbitrarily defined as 100%. […] The graph depicts mean (compared with control) ±SD calculated from five separate experiments for each group (n=29). *, P<0.05 from untreated neurons overexpressing ATF4WT by the Kruskal-Wallis test followed by Dunn's multiple comparisons test. […]

Assay [2] has as its system reduced glutathione (GSH) in cortical neurons. Kind of assay: Reduced glutathione (GSH) in cortical neurons by HPLC electrochemical detection. The note with it: 10 mM HCA or 200 μM BSO, time course; for glutathione concentration, ATF4+/+ neurons: ATF4+/+ cortical neurons; for glutathione concentration, ATF4−/− neurons: ATF4−/− cortical neurons. As for the experimental part:
as §2, with “BSO. […]” for “BSO. At the indicated time points, cells were trypsinized, washed, and pelleted.”, “duplicate. […]” for “duplicate. Graph depicts mean±SD. (G) ATF4^+/+ cortical neurons were infected with GFP (♦), ATF4WT (▪), and ATF4ΔRK (▴) adenoviruses at an MOI of 100. At the indicated time points after infection, cells were trypsinized, washed, and pelleted.”, “duplicate.” for “duplicate. The value obtained from noninfected neurons was arbitrarily defined as 100%.”
Concentrations of reduced glutathione were measured using HPLC (PerkinElmer) equipped with an eight-channel coulometric array detector (ESA, Inc.). […] Glutathione concentrations of supernatant fractions were determined by injecting 5-μl aliquots onto an Ultrasphere 5 u, 4.6×250 mm, C18 column (Beckman Coulter), and eluting with a mobile phase of 50 mM NaH2PO4, 0.05 mM octane sulfonic acid, 1.5% acetonitrile (pH 2.62) at a flow rate of 1 ml/min. Peak areas were analyzed using software from ESA, Inc. Intracellular generation of ROS was determined by DCF. Cortical neurons were seeded in 96-well fluorescence plates. […] Cells were washed with HBSS and read on a plate reader (Fluorometer; MDS Analytical Technologies) at 485-nm excitation and 530-nm emission wavelengths.

A further assay has as its system ATF4. Kind of assay: ATF4 immunoblot of nuclear extracts from cultured cortical neurons. The note with it: 10 mM HCA, 1 μg/ml arginase or 1 μM thapsigargin, versus vehicle control. As for the experimental part:
as §1

The next assay concerns TRB3 mRNA. Kind of assay: Real-time PCR of TRB3 mRNA expression in cortical neurons. The note with it: 10 mM HCA; ATF4-dependent (ATF4+/+ versus ATF4−/− neurons).

Take `COc1ccc(O)c(C(C)(C)C)c1` [BHA, butylated hydroxyanisol]: the “neuronal viability in neurons overexpressing ATF4WT” value in assay [1] (ATF4+/+ cortical neurons infected with ATF4WT adenovirus, MOI 100, 10 μM BHA) was “significantly increased neuronal viability”. Further, in assay [1] (ATF4WT adenovirus, MOI 100, 10 μM BHA plus 10 mM HCA), the “protection against additional HCA toxicity in neurons overexpressing ATF4WT” value was “protected against the additional toxic effect of HCA treatment”.
Regarding `CCCCS(=N)(=O)CCC(N)C(=O)O` (stereo not drawn) [BSO, buthionine sulfoximine], the “cell viability, ATF4+/+ neurons” value in assay [1] (200 μM BSO, 24 h, ATF4+/+ cortical neurons) is reported as “resulted in cell death”. The “cell viability, ATF4−/− neurons” value in assay [1] (200 μM BSO, 24 h, ATF4−/− cortical neurons) is “essentially resistant”. In assay [2], the “glutathione concentration, ATF4+/+ neurons” value was “decline in the concentration of glutathione” and the “glutathione concentration, ATF4−/− neurons” value is “distinctly slower reduction of glutathione”.
Take `C/C=C(/C)C(=O)O[C@H]1C(C)=C2[C@H]([C@@H]1OC(=O)CCCCCCC)[C@@](C)(OC(C)=O)C[C@H](OC(=O)CCC)[C@@]1(O)[C@H]2OC(=O)[C@@]1(C)O` [thapsigargin]: the “protection from oxidative stress-induced neuronal cell death” value in assay [1] (10 mM HCA, 24 h, 1 μg/ml arginase or 1 μM thapsigargin, MTT and live/dead assay) is “nearly complete protection from neuronal cell death”. In the assay on ATF4, the ATF4 protein expression/accumulation entry is “accumulation of ATF4 protein”.
Consider `NC(CCS(=O)(=O)O)C(=O)O` (stereo not drawn) [HCA, homocysteate], for which the ATF4 protein expression/accumulation entry in the assay with ATF4 is reported as “increases the expression of ATF4”. Moreover, in assay [2], the “glutathione concentration, ATF4+/+ neurons” value is “progressive loss of glutathione” and the “glutathione concentration, ATF4−/− neurons” value is given as “markedly slower decline in glutathione concentration”. Besides, the “TRB3 mRNA expression” value with TRB3 mRNA is recorded as “induced”.
